According to patent publication US9493490B1, “Boron-containing small molecules” (Anacor Pharmaceuticals, Inc., priority 2013, dated 2016):
Read-outs that look alike come from different tables or passages of the source.

Experiments:
[1] = system: TNF-a secretion from LPS stimulated hPBMC; assay: Inhibition of TNF-a secretion from LPS stimulated hPBMC; assay type: cell-based, human; details: LPS for 24 hours
Experimental: Measurement of the inhibition of cytokine secretion from stimulated human peripheral blood mononuclear cells by drugs was performed as described in Dong C. et al., J Pharmacol Exp Ther. 2013 February; 344(2):436-46; and Akama T. et al., Bioorg Med Chem Lett. 2013 Mar. 15; 23(6):1680-3. Briefly PBMC were incubated with drug, and stimulators; LPS for 24 hours to release TNF-α, and IL-6; PHA for 24 hours, to release IL-2 and IFN-γ, and PHA for 48 hours, to release IL-5 and IL-13. The cell culture supernatants were collected for cytokine determinations using Cisbio HTRF cytokine determination kits. Compounds were prepared using an eight point 1:10 dilution series starting at 10 or 100 uM; the resulting dose-response curves were fit to the four parameter sigmoid equation.

ROCK1 [2] = molecular target: T1, ROCK1 (Homo sapiens (Human), UniProt Q13464); assay: ROCK1 phosphorylation activity (Reaction Biology, radiometric); assay type: biochemical, H. sapiens
Experimental: (§1) Phosphorylation of activity of ROCK1 and ROCK2 and those of other kinases, AKT1, GRK2, PKA, PKCa and RSK1 were performed by Reaction Biology (Malvern, Pa.) (Ma et al., 2008) The ROCK1 enzyme tested was GST[1-535] ROCK1 (Genbank, NP 005397), ROCK2 was GST[5-554] (Genbank, 3327051). For the kinase assay buffers contained 20 mM Hepes, 10 mM MgCl2, 2 mM DTT, 0.02 mg/mL BSA, 0.1% DMSO, 1 mM EGTA, 0.02% Brij-35, 10 uM ATP, [γP^33]-ATP and for ROCK enzymes, 20 uM long S6-peptide (32 amino acids length). Appropriate substrates and activation was applied for the other kinases tested. Each enzyme was preincubated with test compound for 15 min., and the reaction started by addition of ATP. Samples were incubated at room temperature for 120 min, and applied to P81 ion exchange paper and washed extensively; the radioactive content of the filters were determined. […] Selectivity ratio is the value for PKA/ROCK2.
Target sequence in this assay (Q13464 1-535): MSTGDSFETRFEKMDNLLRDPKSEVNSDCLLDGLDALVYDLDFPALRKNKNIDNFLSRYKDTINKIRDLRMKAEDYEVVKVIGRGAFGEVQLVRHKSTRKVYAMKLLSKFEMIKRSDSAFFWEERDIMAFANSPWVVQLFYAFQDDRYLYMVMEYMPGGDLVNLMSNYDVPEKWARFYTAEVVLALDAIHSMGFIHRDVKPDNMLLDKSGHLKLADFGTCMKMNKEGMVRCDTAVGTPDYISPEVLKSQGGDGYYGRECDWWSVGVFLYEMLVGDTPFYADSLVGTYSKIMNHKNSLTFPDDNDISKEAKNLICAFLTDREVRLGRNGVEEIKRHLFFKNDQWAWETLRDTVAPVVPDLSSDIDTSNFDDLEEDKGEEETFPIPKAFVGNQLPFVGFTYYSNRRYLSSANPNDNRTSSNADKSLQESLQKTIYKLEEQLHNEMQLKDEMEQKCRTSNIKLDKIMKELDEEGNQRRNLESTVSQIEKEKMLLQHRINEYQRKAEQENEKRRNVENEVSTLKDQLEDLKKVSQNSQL

ROCK1 [3] = molecular target: T1, ROCK1; assay: Kinase binding panel (KINOMEscan), ROCK1; details: table under Kinase Binding Panel
Experimental: (§2) Kinase inhibition potency was measured using KINOMEscan™ technology across 402 human kinases [Fabian et al., Nat Biotechnol. 2005 March; 23(3):329-36] (DiscoverRx, Inc., (Fremont, Calif.)). The assay is based on a competition binding assay which quantitatively measures the ability of a compound to compete with an immobilized, active-site directed ligand. […] 2008 January; 26(1):127-32; Fabian et al., Nat Biotechnol. 2005 March; 23(3):329-36]. The assay is performed by combining three components: DNA-tagged kinase; immobilized ligand; and a test compound. Binding reactions were assembled by combining, for 1 hr at room temperature, kinases, liganded affinity beads, and test compounds in binding buffer (20% SeaBlock, 0.17×PBS, 0.05% Tween-20, 6 mM DTT). The assay plates were washed and then re-suspended in elution buffer for 30 min. (PBS, 0.05% Tween 20, 0.5 μM non-biotinylated affinity ligand). The kinase concentration in the eluates was measured by qPCR.
Target sequence in this assay (Q13464 whole entry): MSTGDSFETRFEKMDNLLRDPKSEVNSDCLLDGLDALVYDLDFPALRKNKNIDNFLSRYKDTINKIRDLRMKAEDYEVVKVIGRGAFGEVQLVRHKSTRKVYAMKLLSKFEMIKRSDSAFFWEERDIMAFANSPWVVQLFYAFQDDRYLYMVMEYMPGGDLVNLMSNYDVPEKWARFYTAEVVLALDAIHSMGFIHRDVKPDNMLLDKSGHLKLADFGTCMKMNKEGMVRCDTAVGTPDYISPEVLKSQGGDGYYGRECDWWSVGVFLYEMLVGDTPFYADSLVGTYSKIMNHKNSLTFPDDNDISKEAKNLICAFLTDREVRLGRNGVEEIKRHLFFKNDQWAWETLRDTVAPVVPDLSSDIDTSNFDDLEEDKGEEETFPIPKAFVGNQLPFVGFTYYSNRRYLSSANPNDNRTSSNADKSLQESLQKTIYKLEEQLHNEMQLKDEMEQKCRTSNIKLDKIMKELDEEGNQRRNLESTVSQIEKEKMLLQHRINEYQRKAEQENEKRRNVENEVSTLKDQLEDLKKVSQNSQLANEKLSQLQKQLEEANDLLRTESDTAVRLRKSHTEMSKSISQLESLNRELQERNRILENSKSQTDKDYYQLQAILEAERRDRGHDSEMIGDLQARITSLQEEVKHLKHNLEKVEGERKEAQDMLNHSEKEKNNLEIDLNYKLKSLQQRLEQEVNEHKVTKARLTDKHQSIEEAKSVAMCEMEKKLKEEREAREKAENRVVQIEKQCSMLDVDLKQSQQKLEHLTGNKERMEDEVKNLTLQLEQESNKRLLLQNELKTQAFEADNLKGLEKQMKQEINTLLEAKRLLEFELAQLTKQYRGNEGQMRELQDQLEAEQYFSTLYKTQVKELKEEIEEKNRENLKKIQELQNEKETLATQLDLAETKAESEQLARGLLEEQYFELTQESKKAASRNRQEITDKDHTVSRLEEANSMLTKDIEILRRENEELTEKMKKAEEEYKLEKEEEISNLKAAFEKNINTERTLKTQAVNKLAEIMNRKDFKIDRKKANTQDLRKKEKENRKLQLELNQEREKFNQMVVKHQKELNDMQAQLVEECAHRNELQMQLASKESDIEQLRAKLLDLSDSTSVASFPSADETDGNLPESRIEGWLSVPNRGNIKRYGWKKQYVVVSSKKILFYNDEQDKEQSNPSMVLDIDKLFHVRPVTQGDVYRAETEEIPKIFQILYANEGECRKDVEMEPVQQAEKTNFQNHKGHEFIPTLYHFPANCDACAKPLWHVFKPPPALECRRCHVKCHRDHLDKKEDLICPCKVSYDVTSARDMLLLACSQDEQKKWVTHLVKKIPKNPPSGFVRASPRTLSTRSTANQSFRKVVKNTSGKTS

ROCK2 [4] = molecular target: T2, ROCK2 (Homo sapiens (Human), UniProt O75116); assay: Kinase binding panel (KINOMEscan), ROCK2; details: table under Kinase Binding Panel
Experimental: as §2
Target sequence in this assay (O75116 whole entry): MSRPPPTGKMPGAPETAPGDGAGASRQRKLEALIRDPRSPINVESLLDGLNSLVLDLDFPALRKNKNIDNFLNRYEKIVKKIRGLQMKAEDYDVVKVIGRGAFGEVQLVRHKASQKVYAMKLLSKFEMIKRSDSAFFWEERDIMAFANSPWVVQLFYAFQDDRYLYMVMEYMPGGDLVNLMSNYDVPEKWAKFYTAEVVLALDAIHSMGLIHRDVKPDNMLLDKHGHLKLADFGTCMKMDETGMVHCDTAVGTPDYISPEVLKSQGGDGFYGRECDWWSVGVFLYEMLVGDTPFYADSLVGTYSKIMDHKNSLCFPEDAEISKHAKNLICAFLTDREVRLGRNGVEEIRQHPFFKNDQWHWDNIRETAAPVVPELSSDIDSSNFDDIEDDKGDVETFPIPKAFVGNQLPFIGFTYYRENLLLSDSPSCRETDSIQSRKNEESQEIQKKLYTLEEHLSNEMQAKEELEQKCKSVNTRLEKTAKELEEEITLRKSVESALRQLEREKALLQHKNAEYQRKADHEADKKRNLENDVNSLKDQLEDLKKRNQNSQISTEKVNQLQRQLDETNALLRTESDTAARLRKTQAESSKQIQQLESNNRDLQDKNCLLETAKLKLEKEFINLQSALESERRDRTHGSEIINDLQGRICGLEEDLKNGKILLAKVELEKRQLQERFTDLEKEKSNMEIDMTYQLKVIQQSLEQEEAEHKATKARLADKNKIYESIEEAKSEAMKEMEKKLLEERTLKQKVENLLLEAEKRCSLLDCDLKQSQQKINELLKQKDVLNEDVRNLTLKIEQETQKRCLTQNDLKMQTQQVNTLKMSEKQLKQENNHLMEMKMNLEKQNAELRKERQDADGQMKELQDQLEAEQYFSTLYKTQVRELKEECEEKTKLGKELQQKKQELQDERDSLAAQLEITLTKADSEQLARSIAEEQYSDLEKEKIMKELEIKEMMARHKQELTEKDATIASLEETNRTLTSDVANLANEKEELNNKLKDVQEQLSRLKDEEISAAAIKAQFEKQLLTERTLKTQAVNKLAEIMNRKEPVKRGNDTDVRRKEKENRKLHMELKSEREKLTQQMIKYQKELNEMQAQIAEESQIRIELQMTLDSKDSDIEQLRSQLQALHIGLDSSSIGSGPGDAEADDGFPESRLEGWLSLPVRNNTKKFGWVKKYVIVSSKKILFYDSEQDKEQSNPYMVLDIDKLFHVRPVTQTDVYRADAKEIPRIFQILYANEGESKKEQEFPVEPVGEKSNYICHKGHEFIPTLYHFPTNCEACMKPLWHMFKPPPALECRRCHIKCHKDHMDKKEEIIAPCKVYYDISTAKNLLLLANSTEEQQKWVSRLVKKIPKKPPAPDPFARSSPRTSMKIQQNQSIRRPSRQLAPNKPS

ROCK2 [5] = molecular target: T2, ROCK2; assay: ROCK2 phosphorylation activity (Reaction Biology, radiometric); assay type: biochemical; details: for IC50: 10 uM ATP
Experimental: as §1
Target sequence in this assay (O75116 5-554): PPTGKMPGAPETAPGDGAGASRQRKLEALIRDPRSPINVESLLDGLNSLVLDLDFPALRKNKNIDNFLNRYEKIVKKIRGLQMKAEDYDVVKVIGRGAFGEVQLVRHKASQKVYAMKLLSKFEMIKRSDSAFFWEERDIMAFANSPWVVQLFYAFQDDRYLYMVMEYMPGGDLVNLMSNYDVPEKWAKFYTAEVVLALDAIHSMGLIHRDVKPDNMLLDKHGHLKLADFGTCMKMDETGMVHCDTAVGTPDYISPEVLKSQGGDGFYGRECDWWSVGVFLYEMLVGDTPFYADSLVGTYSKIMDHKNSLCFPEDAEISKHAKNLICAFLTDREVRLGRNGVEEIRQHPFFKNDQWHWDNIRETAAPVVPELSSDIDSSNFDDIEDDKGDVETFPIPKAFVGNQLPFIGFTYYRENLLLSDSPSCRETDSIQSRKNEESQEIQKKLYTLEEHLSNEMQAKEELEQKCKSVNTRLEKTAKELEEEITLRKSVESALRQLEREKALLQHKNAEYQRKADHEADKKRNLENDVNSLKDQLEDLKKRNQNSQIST

AKT1 = AKT1 (Homo sapiens (Human), UniProt P31749); assay: AKT1 phosphorylation activity; assay type: biochemical; details: 10 uM ATP
Chain of AKT1 (P31749 whole entry, species assumed): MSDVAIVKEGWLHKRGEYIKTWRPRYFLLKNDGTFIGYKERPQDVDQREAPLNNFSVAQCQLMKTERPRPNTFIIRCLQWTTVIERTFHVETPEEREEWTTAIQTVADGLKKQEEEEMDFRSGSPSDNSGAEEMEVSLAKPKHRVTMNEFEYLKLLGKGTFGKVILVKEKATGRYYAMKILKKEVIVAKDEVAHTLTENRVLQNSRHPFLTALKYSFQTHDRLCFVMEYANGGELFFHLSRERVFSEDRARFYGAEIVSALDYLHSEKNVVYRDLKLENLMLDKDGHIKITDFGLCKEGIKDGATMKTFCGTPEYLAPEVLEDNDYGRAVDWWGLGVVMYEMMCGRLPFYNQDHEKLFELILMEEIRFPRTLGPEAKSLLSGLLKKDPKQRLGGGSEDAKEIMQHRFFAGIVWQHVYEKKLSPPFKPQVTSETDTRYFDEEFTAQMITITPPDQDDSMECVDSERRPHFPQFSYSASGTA
Experimental: as §1

GRK2 = GRK2 (Homo sapiens (Human), UniProt P25098); assay: GRK2 phosphorylation activity; assay type: biochemical; details: 10 uM ATP
Chain of GRK2 (P25098 whole entry, species assumed): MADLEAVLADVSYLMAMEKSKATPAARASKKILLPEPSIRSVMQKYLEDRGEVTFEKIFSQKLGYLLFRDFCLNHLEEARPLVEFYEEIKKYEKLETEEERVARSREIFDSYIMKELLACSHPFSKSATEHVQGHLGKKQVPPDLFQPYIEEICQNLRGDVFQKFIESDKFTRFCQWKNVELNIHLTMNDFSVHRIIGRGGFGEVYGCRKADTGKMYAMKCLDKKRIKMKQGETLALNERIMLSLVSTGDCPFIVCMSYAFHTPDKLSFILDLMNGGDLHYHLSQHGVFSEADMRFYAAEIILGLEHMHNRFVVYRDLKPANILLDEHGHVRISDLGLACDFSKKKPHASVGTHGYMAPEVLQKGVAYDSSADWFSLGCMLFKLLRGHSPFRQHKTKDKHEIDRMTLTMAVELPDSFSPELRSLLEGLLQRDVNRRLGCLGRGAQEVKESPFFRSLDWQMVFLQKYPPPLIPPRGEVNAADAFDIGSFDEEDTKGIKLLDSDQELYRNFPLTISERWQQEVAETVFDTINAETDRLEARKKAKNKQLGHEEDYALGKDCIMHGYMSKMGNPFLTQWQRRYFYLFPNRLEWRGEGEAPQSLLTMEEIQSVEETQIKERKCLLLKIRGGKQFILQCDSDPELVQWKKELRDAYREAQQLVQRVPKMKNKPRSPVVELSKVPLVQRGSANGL
Experimental: as §1

PKA = PKA (Homo sapiens (Human), UniProt P17612); assay: PKA phosphorylation activity; assay type: biochemical; details: 10 uM ATP
Experimental: as §1

PKCa = PKCa (Homo sapiens (Human), UniProt P17252); assay: PKCa phosphorylation activity; assay type: biochemical; details: 10 uM ATP
Experimental: as §1

RSK1 = RSK1 (Homo sapiens (Human), UniProt Q15418); assay: RSK1 phosphorylation activity; assay type: biochemical; details: 10 uM ATP
Experimental: as §1

[6] = system: p-MYPT1 phosphorylation in PANC-1 cells; assay: Intracellular MYPT1 phosphorylation assay in PANC-1 cells; assay type: cell-based, H. sapiens; details: Homo sapiens
Experimental: Intracellular MYPT1 phosphorylation assay used the procedures of Garton et al. with minor modifications (Garton et al. Methods Enzymol. 2008; 439:491-500). PANC-1 cells (ACTT, CRL-1469), 18×10^3/well, grown over night in DMEM medium supplemented with 4.5 g/L glucose, L-glutamine, sodium pyruvate and 10% FBS at 37° C. Compounds were applied to the cells for one hour (DMSO final 1%) and the cells were then lysed. Phosphorylated-MYPT1 was detected using plate immobilized anti-MYPT1 antibody (BD Biosciences, cat. 612165), anti-phospo-MYPT1([…]), US Biological, cat. M9925-08) and secondary HRP-conjugated goat anti-rabbit IgG antibody (Jackson Laboratories, cat. 111-035-003), phospho-MYPT1 was quantified using color formed by the tetramethylbenzidine (TMB) HRP substrate.

[7] = read-out: IC50: ROCK1: H. sapiens
[8] = read-out: Inhibition of hROCK1 Phosphorylation [IC50
[9] = PANC-1 cells, .0417 days (compounds applied for one hour), read-out: IC50: Inhib p-MYPT1 Phosphorylation in H. sapiens PANC-1 cells, .0417 days
[10] = 10 uM ATP, read-out: ROCK1 IC50

Row | IC50 (ROCK1 [2]; [8]) [µM] | IC50 (ROCK1 [3]) [µM] | IC50 (ROCK2 [4]) [µM] | SELECTIVITY RATIO (ROCK2 [5]; value for PKA/ROCK2) | IC50 (AKT1) [µM] | IC50 (GRK2) [µM] | IC50 (PKA) [µM] | IC50 (PKCa) [µM] | IC50 (RSK1) [µM] | IC50 ([1]; Homo sapiens) [µM] | IC50 ([1]; Homo sapiens, 24 h) [µM] | IC50 (ROCK2 [5]) [µM] | IC50 (ROCK1 [2]; [10]) [µM] | Compound | IC50 [1] [µM] | IC50 (ROCK1 [2]; [7]) [µM] | IC50 [6, 9] [µM] | S[…] (ROCK2 [5]; value for PKA/ROCK2) | IC50 ([6]; PANC-1, read-out: IC50: Inhib p-MYPT1 Phosphorylation in H. sapiens PANC-1 cells, .0417 days [uM]) [µM]
1 | 0.29 | 0.29 | 0.25 |  |  |  |  |  |  | 3.61 |  |  |  | CCc1c(Oc2ccc(CN)cc2Cl)ccc2c1B(O)OC2 [A, 6-(4-(Aminomethyl)-2-chlorophenoxy)-7-ethylbenzo[c][1,2]oxaborol-1(3H)-ol] |  |  |  |  | 
2 | 11 | 23 | 16 |  |  |  |  |  |  | 99 |  |  |  | NCc1ccc(Oc2ccc3c(c2Cl)B(O)OC3)c(Cl)c1 [B, 6-(4-(aminomethyl)-2-chlorophenoxy)-7-chlorobenzo[c][1,2]oxaborol-1(3H)-ol] |  |  |  |  | 
3 | 0.54 | 0.54 | 0.45 | >111 | > 30 | > 20 | > 50 | > 20 | > 50 |  | 12 |  |  | CC(N)c1ccc(Oc2ccc3c(c2)B(O)OC3)c(F)c1.Cl (stereo not shown) [C, 6-(4-(1-aminoethyl)-2-fluorophenoxy)benzo[c][1,2]oxaborol-1(3H)-ol] |  | 0.54 | 48.1 |  | 
4 | 0.34 | 0.34 | 0.25 | 16.29 | 9.25 | > 20 | 4.06 | > 20 | 5.01 |  | 12.3 |  |  | Cc1c(Oc2ccc(CN)cc2F)ccc2c1B(O)OC2 [D, 6-(4-(aminomethyl)-2-fluorophenoxy)-7-methylbenzo[c][1,2]oxaborol-1(3H)-ol] |  | 0.34 | 18.2 |  | 
5 | 0.72 | 0.72 | 0.664 | 11.87 | > 30 | > 30 | 7.88 | > 30 | 25 |  |  | 0.66 |  | Cc1c(Oc2cccc(CNC(=O)OC(C)(C)C)c2F)ccc2c1B(O)OC2 [L, tert-butyl 2-fluoro-3-(1-hydroxy-7-methyl-1,3-dihydrobenzo[c][1,2]oxaborol-6-yloxy)benzylcarbamate] |  |  |  |  | 
6 | 0.247 | 0.247 | 0.216 | 15.65 | > 30 | > 30 | 3.38 | > 30 | 5.19 |  |  | 0.22 | 0.25 | Cc1c(Oc2cccc(CN)c2F)ccc2c1B(O)OC2 [M, 6-(3-(aminomethyl)-2-fluorophenoxy)-7-methylbenzo[c][1,2]oxaborol-1(3H)-ol] |  |  |  |  | 
7 | 0.596 | 0.0596 | 0.0472 | 1.17 | 4.22 |  | 0.055 | 10.8 | 0.195 | 5.63 |  | 0.047 | 0.06 | CC(C)c1c(Oc2ccc(CN)cc2Cl)ccc2c1B(O)OC2 [N, 6-(4-(aminomethyl)-2-chlorophenoxy)-7-isopropylbenzo[c][1,2]oxaborol-1 (3H)-ol] |  |  |  |  | 

Row | Compound | IC50 (ROCK1 [2]; [8]) [µM] | IC50 (ROCK1 [3]) [µM] | IC50 (ROCK2 [4]) [µM] | SELECTIVITY RATIO (ROCK2 [5]; value for PKA/ROCK2) | IC50 (AKT1) [µM] | IC50 (GRK2) [µM] | IC50 (PKA) [µM] | IC50 (PKCa) [µM] | IC50 (RSK1) [µM] | IC50 ([1]; Homo sapiens) [µM] | IC50 ([1]; Homo sapiens, 24 h) [µM] | IC50 (ROCK2 [5]) [µM] | IC50 (ROCK1 [2]; [10]) [µM] | IC50 [1] [µM] | IC50 (ROCK1 [2]; [7]) [µM] | IC50 [6, 9] [µM] | S[…] (ROCK2 [5]; value for PKA/ROCK2) | IC50 ([6]; PANC-1, read-out: IC50: Inhib p-MYPT1 Phosphorylation in H. sapiens PANC-1 cells, .0417 days [uM]) [µM]
8 | Cc1c(Oc2ccc(C(C)N)cc2F)ccc2c1B(O)OC2.Cl (single isomer, unassigned) [F] | 0.54 | 0.54 | 0.51 | 21.51 | 44.1 | > 20 | 11 | > 20 | 17.2 |  |  |  |  | 20.5 | 0.54 | 56.4 |  | 
9 | Cc1c(Oc2ccc(C(C)N)cc2F)ccc2c1B(O)OC2 (single isomer, unassigned) [G] | 0.17 | 0.17 | 0.17 |  | 10.9 | 13.9 | 1.79 | 15.6 | 3.62 |  |  |  |  | 5.18 | 0.17 |  | 10.40 | 18.7
10 | Cc1c(Oc2ccc(C(C)N)cc2F)ccc2c1B(O)OC2 (stereo not shown) [E, 6-(4-(1-aminoethyl)-2-fluorophenoxy)-7-methylbenzo[c][1,2]oxaborol-1(3H)-ol] | 0.42 | 0.42 | 0.25 | 24.74 | 21.5 | > 20 | 6.09 | > 20 | 8.31 |  | 5.4 |  |  |  | 0.42 | 39.7 |  | 
